This is an account of results in US5500414A, “Derivatives of peptides usable as inhibitors of bacterial collagenases” (Commissariat a l'Energie Atomique, priority 1991, dated 1996).

This test deals with bacterial collagenase. The test can be described thus: Inhibition of bacterial collagenase; Ki from dissociation and association rate constants, substrate Fa--Leu--Gly--Pro--Ala. Format: biochemical, Empedobacterium collagenolyticum. The following applies: ratio Koff/Kon, slow binding inhibitors, pH7 Tricine buffer. On the procedure:
The activities of the different compounds A, B, C and D were determined on the one hand by measuring the association rate constant of the inhibitors to collagenase by the method of Morrison, J. & Walsh, C. T., 1987, Adv., Enzymol. Relat. Aeras Mol. Biol. applied in the case where the inhibitors are of the slow binding type and on the other hand by measuring the dissociation rate constants of the inhibitors of the enzyme--inhibitor complex. In this case, after allowing the collagenase to preincubate in the presence of an inhibitor excess, the thus formed enzyme--inhibitor complex is purified by gel filtration. The solution containing the purified complex is then diluted by a factor of 10,000 in a reference buffer and then, as a function of time, measurement takes place of the return of the activity of the collagenase, which represents the dissociation of the inhibitor of the enzyme--inhibitor complex.
The inhibition constants given in the table correspond to the ratio of the dissociation rate constants Koff and the association rate constants Kon measured in this way. In all the activity measurement experiments we used as the synthetic substrate Fa--Leu--Gly--Pro--Ala in a pH7 Tricine buffer. The source of the bacterial collagenase used was the strain Empedobacterium collagenolyticum.
For Z,D,L-Phe*PCH2DL-Ala°ProNle°, 2Na^+ [F], the inhibition constant Ki was found to be 2350 nM.

Regarding “Z--D,LPhe*--PO2 CH2 --CH2 --CO--Pro--Nle*,2Na^+ [Compound A]”, the inhibition constant Ki is 12 nM.

With “Z--Gly--Pro--Phe*--PO(OH)--CH2 --CH2 --CO--Pro--Nle*2Na^+”, the inhibition constant (Ki) was 0.4 nM.

As for “Z--Pro--Phe*--PO(OH)--CH2 --CH2 --CO--Pro--Nle* 2Na^+ [Compound B]”, the Ki was determined as 80 nM.
